Test results taken from PMC9085577, “Discovery of a Potent and Orally Active Dual GPBAR1/CysLT1R Modulator for the Treatment of Metabolic Fatty Liver Disease” (Frontiers in Pharmacology, 2022).
Values joined by “and” are separate entries in the source; they are usually repeats but may differ in a detail not shown here. Identical values can stand only once.

Experiments:
human GPBAR1 = molecular target: T1, human GPBAR1 (Homo sapiens, UniProt Q8TDU6); experiment: GPBAR1 CRE-luciferase reporter transactivation assay in HEK-293T cells; type: cell-based; settings: HEK293T cells
T1 construct: expressed in transfected cells; host or cells: HEK-293T cells, transient transfection (Fugene HD)
T1 sequence (Q8TDU6 1-330): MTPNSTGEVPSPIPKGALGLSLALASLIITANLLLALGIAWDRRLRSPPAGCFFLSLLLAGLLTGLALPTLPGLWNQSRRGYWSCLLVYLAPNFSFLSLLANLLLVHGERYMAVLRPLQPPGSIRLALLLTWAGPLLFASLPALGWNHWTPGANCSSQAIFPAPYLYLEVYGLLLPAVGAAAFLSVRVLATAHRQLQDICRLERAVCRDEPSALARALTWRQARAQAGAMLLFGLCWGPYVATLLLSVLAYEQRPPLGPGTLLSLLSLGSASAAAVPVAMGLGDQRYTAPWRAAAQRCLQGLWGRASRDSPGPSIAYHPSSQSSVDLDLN
Method: GPBAR1. […] At 18 h post stimulations, cellular lysates were assayed for luciferase and Renilla activities using the Dual-Luciferase Reporter assay system (E1980, Promega Madison WI). Luminescence was measured using Glomax 20/20 luminometer (Promega, Madison WI). Luciferase activities were normalized with Renilla activities.
Agonistic activities of compounds on GPBAR1 were compared to TLCA, which was set as 100%.

Human CysLT1 (LTD4) = molecular target: T2, Human CysLT1 (LTD4) (Homo sapiens, UniProt Q9Y271); experiment: Human CysLT1 (LTD4) antagonist effect cellular functional assay (Ca2+ fluorescence, Eurofins Cerep-Panlabs); type: cell-based; settings: antagonist effect, 0.1 nM LTD4; read-out: CysLT1R IC50
T2 construct: Eurofins Cerep-Panlabs (France), contract assay
T2 sequence (Q9Y271 1-337): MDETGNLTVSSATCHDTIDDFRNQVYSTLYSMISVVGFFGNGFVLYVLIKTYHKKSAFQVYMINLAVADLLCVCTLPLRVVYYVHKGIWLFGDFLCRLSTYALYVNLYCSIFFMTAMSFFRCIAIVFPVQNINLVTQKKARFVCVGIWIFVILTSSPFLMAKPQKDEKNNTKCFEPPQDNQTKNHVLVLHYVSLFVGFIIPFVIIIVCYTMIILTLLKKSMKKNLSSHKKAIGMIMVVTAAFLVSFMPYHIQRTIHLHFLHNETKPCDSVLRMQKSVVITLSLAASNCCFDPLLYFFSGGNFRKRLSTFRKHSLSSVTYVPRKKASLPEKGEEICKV
Method: Human CysLT1 (LTD4) (h) (antagonist effect) Cellular Functional Assay. These assays were performed at Eurofins Cerep-Panlabs (France). The cells were suspended in DMEM buffer (Invitrogen) and then distributed in microplates at a density of 3.104 cells/well. […] Thereafter, the assay plates are positioned in a microplate reader (CellLux, PerkinElmer), which was used for the addition of the test compound or HBSS buffer, then 5 min later, 0.1 nM LTD4 or HBSS buffer (basal control), and measured the changes in fluorescence intensity, which varies proportionally to the free cytosolic Ca^2+-ion concentration.

[1] = test system: C57BL/6J male mice fed HFD-F; experiment: HFD-F mouse model of NAFLD/NASH (body weight, OGTT, biochemistry, histopathology, adipose tissues); type: in vivo; settings: 30 mg/kg/day by gavage
Source text: C57BL/6J male mice were fed a high fat diet (HFD) containing 59 KJ% fat plus 1% cholesterol, w/o sugar (ssniff ® EF R/M acc. D12330 mod. 22,7 ME/kg) and fructose (HFD-F) in drinking water (42 g/L), or normal chow diet for 61 days. Food intake was estimated as the difference of weight between the offered and the remnant amount of food at 3-days intervals. The food was provided as pressed pellets and the residual spillage was not considered. After 7 days, HFD-F mice were randomized to receive HFD-F alone or in combination with compound 2 (30 mg/kg/day) by gavage until the end of the experiment. Doses of each agent were chosen according to previously published data. Mice were housed under controlled temperature (22°C) and photoperiods (12:12-h light/dark cycle), allowed unrestricted access to standard mouse chow and tap water. The experimental protocol was approved by the Animal Care and Use Committee of the University of Perugia and by the Italian Minister of Health and Istituto Superiore di Sanità (Italy) and was in agreement with the European guidelines for use of experimental animals (permission n. 583/2017-PR). The general health of the animals was monitored daily by the Veterinarian in the animal facility. At the day of sacrifice, fed mice were deeply anesthetized with a mixture of tiletamine hypochloride and zolazepam hypochloride/xylazine at a dose of 50/5 mg/kg and sacrificed before 12 a.m.
Body weight and body length (nose-to-anus or nose–anus length) were measured in anesthetized mice at the time of sacrifice and were used to calculate the body mass index (BMI) (=body weight (g)/length^2 (cm^2)) and the Lee index (=cube root of body weight (g)/nose-to-anus length (cm)).
AST, ALT, total- and HDL-cholesterol, and triglycerides plasmatic levels were quantified using an automated clinical chemistry analyzer (Cobas, Roche).
After 8 weeks of HFD-F mice were fasted overnight and orally administered glucose (1.5 g/kg body weight) for OGTT. The blood glucose concentrations were measured at 0, 15, 30, 60, 90, and 120 min after feeding or injection using a portable glucose meter (Accu-Check Go, Roche).
Temperature of brown adipose tissue (BAT) was recorded through the study using a noninvasive technology. Briefly, mice were maintained at 25°C and the thermal images were taken by a FLIR E6 thermal imaging camera (FLIR System, Wilsonville, Oregon) and the surface temperature quantified by the FLIR Tools.
For histological examination, portions of the right and left liver lobes were fixed in 10% formalin, embedded in paraffin, sectioned and stained with Sirius red and/or Hematoxylin/Eosin (H&E), for morphometric analysis ([Fiorucci et al., 2004]). NASH severity (steatosis, hepatocytes ballooning, lobular inflammation, and portal inflammation) was scored in H&E-stained cross sections using an adapted grading system of human NASH as described previously ([Carino et al., 2017b]).

O=C(O)c1cccc(-c2ccc(OCc3ccc4ccccc4n3)cc2)c1 [Compound 2, 4'-(quinolin-2-ylmethoxy)-[1,1′-biphenyl]-3-carboxylic acid]
EC50 (human GPBAR1; CRE luciferase): 4.6 ± 1.5 µM | Emax (human GPBAR1; HEK-293T, compound 10 µM relative to TLCA (10 μM) as 100, CRE transactivation, read-out: GPBAR1 Eff (%) maximum efficacy): 82 ± 1.2% | IC50 (Human CysLT1 (LTD4)): 5.6 µM and 5.67 µM | ALT plasma levels [1]: reduced | AST plasma levels [1]: reduced | body mass index (BMI) [1]: reduced | eWAT weight [1]: reduced | insulin sensitivity (OGTT) [1]: increased | liver fibrosis and collagen deposition (Sirius red) [1]: robustly attenuated | liver steatosis and hepatocytes ballooning (H&E) [1]: highly effective in reversing these features | liver weight [1]: reversed the effect exerted by the diet | proatherogenic lipid profile [1]: partially reversed | ratio of BAT weight/body weight [1]: reduced | ratio of eWAT weight/body weight [1]: reduced these changes | volume of BAT [1]: reduced | body weight gain ([1]; 54 days): reduced
